As a reminder, the EC50 is the midpoint of the concentration-response curve. A word on the IC50: it is the concentration that inhibits the measured activity by half. In general, inhibition refers to the change of the read-out against control, counted positive when it falls.

Test [1] has as its system Wnt activity (Sp5-Luc reporter in SW480 cells). As to the kind of experiment: Screening assay for Wnt activity: Sp5-Luc reporter gene assay in SW480 colon carcinoma cells. Format: cell-based, human. As to conditions: Homo sapiens, 36 to 48 hours. In a few lines:
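EC50 values come from a variable-slope four-parameter fit of luminescence normalized to DMSO-only wells. The read-out follows 36–48 h incubation at 37 °C, 5% CO2, in DMEM containing 1% fetal bovine serum. Cells are hygromycin-selected SW480 stably expressing firefly luciferase under a Wnt-responsive Sp5 promoter (eight TCF/LEF sites).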

For a further test, the target named is DYRK1A kinase (Homo sapiens (Human), UniProt Q13627). As to the kind of experiment: DYRK1A kinase assay (Ser/Thr 18 peptide Z-lyte FRET). As to conditions: read-out: EC50 (method: IC50). Format: biochemical. The gist of the method: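 Kinase reactions with compound ran 1 h at room temperature in duplicate, and development reagent was then added for another hour.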

A further test has as its target GSK3β kinase (Homo sapiens (Human), UniProt P49841). The test can be described thus: GSK3β kinase assay (Ser/Thr 09 peptide Z-lyte FRET). Format: biochemical. To be noted: read-out: EC50 (method: IC50). In a few lines:
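Non-radioactive Z-lyte FRET read-out, kinase activity expressed as coumarin/fluorescein emission ratio. Compounds incubated with the reaction mixture one hour at room temperature in duplicate, then development buffer added for another hour. IC50 from non-linear regression of dose-response curves.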

Test [2] concerns SW480 colon carcinoma cells. The test can be described thus: Cell viability assay (CellTiter-Glo) in SW480 colon carcinoma cells. As to conditions: Homo sapiens, 96 h, four days. Format: cell-based, human. In a few lines:
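Viability was taken from CellTiter-Glo ATP luminescence, read about 12 min after reagent addition, relative to DMSO controls. The cells were Sp5-Luc reporter SW480 colon carcinoma cells, 2,000/well in 1% FBS DMEM, exposed to compound for four days at 37 °C.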

The test system of test [3] is primary human fibroblasts derived from IPF patients (LL29 cells). As to the kind of experiment: Inhibition of the fibrotic process: αSMA staining in TGF-β1 treated LL29 fibroblasts. Format: cell-based. As to conditions: Homo sapiens, Fibroblast, 96 h; LL29 cells, TGF-β1 20 ng/mL, 4 days, % αSMA positive cells. The gist of the method: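 LL29 fibroblasts from IPF patients, in F12 medium with 1% FBS, treated with TGF-β1 plus compound; TGF-β1 with DMSO as positive control, DMSO alone as negative control. After 4 days' incubation, SYTOX green nucleic acid stain added at 1 μM final, 30 min at room temperature.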

The subject of the next test is IL-6. As to the kind of experiment: IL-6 inhibition in LPS-stimulated human peripheral blood mononuclear cells (HTRF). Format: cell-based. To be noted: Homo sapiens, PBMC; for EC50: huPBMCs, LPS 50 ng/mL, 22 hours, IL-6 HTRF; for inhibition at 10 µM: read-out: percent inhibition at 10 μM. The procedure:
Fresh Normal PB MNC (Catalog #PB001, AllCells, Alameda, Calif.) were shipped overnight at 4° C. and resuspended in Roswell Park Memorial Institute (RPMI) 1640 Medium, with GlutaMAX Supplement (Catalog #61870127, ThermoFisher Scientific, Waltham, Mass.) supplemented with 1% Penicillin-Streptomycin (Catalog #15140163. ThermoFisher Scientific, Waltham, Mass.) and 1% fetal bovine serum (FBS) (Catalog #16140089, ThermoFisher Scientific, Waltham, Mass.) assay media. Fresh normal human peripheral blood mononuclear cells (huPBMCs) were resuspended in 1% FBS-RPMI assay media with 1% Penicillin-Streptomycin 1% to a cell concentration of 1×10e6 cells/mL. […] 50 ng/mL of Lipopolysaccharides from Escherichia coli 0111:B4 (Catalog #L5293-2ML, Sigma-Aldrich, St. Louis, Mo.) was added after 2 hours and cells were incubated for another 22 hours at 37° C.-5% CO2. After 22 hour incubation, a mixture of anti-IL6 XL665 and anti-IL-6 Cryptate diluted in reconstitution buffer (Catalog #62IL6PEC, Cisbio Inc., Bedford, Mass.) was added to each well. Following incubation for 3 hours at room temperature, Homogeneous Time-Resolved Fluorescence (HTRF) was measured using the Envision (Perkin Elmer, Shelton, Conn.) at 665 nm and […]. The ratio of fluorescence at 665 nm to 620 nm was used as a readout for IL-6 quantification. All samples were processed in duplicate. Readings were normalized to DMSO treated cells and normalized activities were utilized for EC50 calculations.
In general terms: Time-resolved FRET reads energy transfer from a long-lived donor to a nearby acceptor.

GSK3β kinase, sequence (P49841 whole entry): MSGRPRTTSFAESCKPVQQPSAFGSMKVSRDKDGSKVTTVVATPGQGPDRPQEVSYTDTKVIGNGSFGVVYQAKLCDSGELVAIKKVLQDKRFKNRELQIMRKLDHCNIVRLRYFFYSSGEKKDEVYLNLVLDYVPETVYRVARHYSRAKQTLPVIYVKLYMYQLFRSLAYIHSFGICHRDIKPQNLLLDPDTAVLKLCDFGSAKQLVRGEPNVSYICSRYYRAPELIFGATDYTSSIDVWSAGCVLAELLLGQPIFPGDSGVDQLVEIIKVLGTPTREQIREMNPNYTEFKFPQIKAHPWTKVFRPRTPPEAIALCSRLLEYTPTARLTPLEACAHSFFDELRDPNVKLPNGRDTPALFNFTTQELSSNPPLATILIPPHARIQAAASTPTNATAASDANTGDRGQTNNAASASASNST

Regarding `O=C(N[C@H]1CC[C@H](CN2CC(F)C2)CC1)c1n[nH]c2ccc(-c3cnn(C4CC4)c3)cc12` [Compound 26, 5-(1-Cyclopropyl-1H-pyrazol-4-yl)-N-((1R,4R)-4-((3-fluoroazetidin-1-yl)methyl)cyclohexyl)-1H-indazole-3-carboxamide], the EC50 in test [1] was 1180 nM; in test [2] it was 849 nM; in test [3], > 10000 nM; in the test on IL-6, 1040 nM. The IC50 on DYRK1A kinase worked out at 5 nM; at GSK3β kinase, 34 nM.

As for `O=C(N[C@H]1CC[C@H](CN2CC(F)C2)CC1)c1n[nH]c2ccc(-c3cnn4c3CCCC4)cc12` [Compound 27, N-((1R,4R)-4-((3-Fluoroazetidin-1-yl)methyl)cyclohexyl)-5-(4,5,6,7-tetrahydropyrazolo[1,5-a]pyridin-3-yl)-1H-indazole-3-carboxamide], the EC50 in test [1] was found to be 677 nM; in test [2], 6450 nM; in test [3] it was 346 nM; in the test with IL-6 it was 3820 nM. Moreover, the results for the IC50 at DYRK1A kinase and on GSK3β kinase were 4 nM and 12 nM, respectively.

As to `Cn1cc(-c2ccc3[nH]nc(C(=O)N[C@H]4CC[C@H](CN5CCCC5)CC4)c3c2)cn1` [Compound 28, 5-(1-Methyl-1H-pyrazol-4-yl)-N-((1R,4R)-4-(pyrrolidin-1-ylmethyl)cyclohexyl)-1H-indazole-3-carboxamide], the EC50 stood at 688 nM in test [1], 442 nM in test [2], 409 nM in test [3] and 401 nM with IL-6. For the same molecule, the IC50 on DYRK1A kinase worked out at 2 nM; on GSK3β kinase it was 11 nM.

Regarding `CC(C)CN1CC[C@@H](NC(=O)c2n[nH]c3ccc(-c4cnn(C)c4)cc23)[C@@H](F)C1` [Compound 31, N-((3S,4R)-3-Fluoro-1-isobutylpiperidin-4-yl)-5-(1-methyl-1H-pyrazol-4-yl)-1H-indazole-3-carboxamide], the EC50 was 610 nM in test [1], > 10000 nM in test [2], 2460 nM in test [3] and 4260 nM in the test with IL-6. In addition, the IC50 amounted to 26 nM at DYRK1A kinase and 55 nM on GSK3β kinase.

For the molecule `CC(C)CN1CC[C@@H](NC(=O)c2n[nH]c3ccc(-c4cnn(C)c4)cc23)[C@H](F)C1` [Compound 32, N-((3R,4R)-3-Fluoro-1-isobutylpiperidin-4-yl)-5-(1-methyl-1H-pyrazol-4-yl)-1H-indazole-3-carboxamide], the EC50 in test [1] is 1830 nM; in test [2] it was 1320 nM; in test [3] it was 372 nM; in the test on IL-6, 1270 nM. In addition, the IC50 is 5 nM on DYRK1A kinase and 31 nM at GSK3β kinase.

In the case of `CC(C)CN1CC[C@H](NC(=O)c2n[nH]c3ccc(-c4cnn(C)c4)cc23)[C@@H](F)C1` [Compound 33, N-((3 S,4S)-3-Fluoro-1-isobutylpiperidin-4-yl)-5-(1-methyl-1H-pyrazol-4-yl)-1H-indazole-3-carboxamide], the EC50 in test [1] is 267 nM; in test [2], > 10000 nM; in test [3] it was 43 nM; in the test on IL-6 it was 3150 nM. Also, the IC50 on DYRK1A kinase stood at 24 nM; on GSK3β kinase it was 36 nM.

Regarding `CC(C)(F)CN1CCC(NC(=O)c2n[nH]c3ccc(-c4cn[nH]c4)cc23)CC1` [Compound 36, N-(1-(2-Fluoro-2-methylpropyl)piperidin-4-yl)-5-(1H-pyrazol-4-yl)-1H-indazole-3-carboxamide], the EC50 in test [1] is 474 nM; in test [2], 691 nM; in test [3], 147 nM; in the test on IL-6 it was 348 nM. The half-maximal inhibitory concentration (IC50) at DYRK1A kinase is 7 nM; at GSK3β kinase it was 23 nM.

In the case of `Cn1cc(-c2ccc3[nH]nc(C(=O)NC4CCN(CC(C)(C)F)CC4)c3c2)cn1` [Compound 37, N-(1-(2-Fluoro-2-methylpropyl)piperidin-4-yl)-5-(1-methyl-1H-pyrazol-4-yl)-1H-indazole-3-carboxamide], the half-maximal effective concentration (EC50) in test [1] is 747 nM; in test [2], 849 nM; in test [3], 118 nM; with IL-6 it was 546 nM. Besides, the IC50 on DYRK1A kinase was 5 nM; on GSK3β kinase, 14 nM.

In the case of `Cn1cc(-c2cc(Cl)c3[nH]nc(C(=O)NC4CCN(CC(C)(C)F)CC4)c3c2)cn1` [Compound 38, 7-Chloro-N-(1-(2-fluoro-2-methylpropyl)piperidin-4-yl)-5-(1-methyl-1H-pyrazol-4-yl)-1H-indazole-3-carboxamide], the EC50 (in test [1]; in test [2]; in test [3]; in the test with IL-6) was > 10000 nM each time. Moreover, the IC50 on DYRK1A kinase and at GSK3β kinase was > 10000 nM each time. Also, the inhibition at 10 µM with IL-6 worked out at 8.8%.

In the case of `CCn1cc(-c2ccc3[nH]nc(C(=O)NC4CCN(CC(C)(C)F)CC4)c3c2)cn1` [Compound 39, 5-(1-Ethyl-1H-pyrazol-4-yl)-N-(1-(2-fluoro-2-methylpropyl)piperidin-4-yl)-1H-indazole-3-carboxamide], the EC50 came out at 3880 nM in test [1], 1310 nM in test [2], 272 nM in test [3] and 1260 nM with IL-6. For the same molecule, the IC50 on DYRK1A kinase turned out to be 22 nM; at GSK3β kinase it was 33 nM.

As to `CC(C)(F)CN1CCC(NC(=O)c2n[nH]c3ccc(-c4cnn(C5CC5)c4)cc23)CC1` [Compound 40, 5-(1-Cyclopropyl-1H-pyrazol-4-yl)-N-(1-(2-fluoro-2-methylpropyl)piperidin-4-yl)-1H-indazole-3-carboxamide], the EC50 in test [1] was determined as 1720 nM; in test [2], 1080 nM; in test [3] it was 68 nM; in the test on IL-6, 1930 nM. Besides, the IC50 was found to be 45 nM on DYRK1A kinase and 687 nM at GSK3β kinase.

`Cn1ncc(-c2ccc3[nH]nc(C(=O)NC4CCN(CC(C)(C)F)CC4)c3c2)c1C(F)F` [Compound 41, 5-(5-(Difluoromethyl)-1-methyl-1H-pyrazol-4-yl)-N-(1-(2-fluoro-2-methylpropyl)piperidin-4-yl)-1H-indazole-3-carboxamide]: the EC50 turned out to be 828 nM in test [1], 3000 nM in test [2], 342 nM in test [3] and 2860 nM in the test on IL-6. Further, the half-inhibitory concentration (IC50) on DYRK1A kinase stood at 250 nM; at GSK3β kinase, 76 nM.

`Cc1noc(C)c1-c1ccc2[nH]nc(C(=O)NC3CCN(CC(C)(C)F)CC3)c2c1` [Compound 43, 5-(3,5-Dimethylisoxazol-4-yl)-N-(1-(2-fluoro-2-methylpropyl)piperidin-4-yl)-1H-indazole-3-carboxamide]: the EC50 in test [1] was > 10000 nM; in test [2] it was > 10000 nM; in test [3], 2170 nM; in the test on IL-6, 9150 nM. The results for the 50% inhibitory concentration (IC50) on DYRK1A kinase and on GSK3β kinase were 67 nM and 1060 nM, respectively.

Take `CN1CC2(CCC(NC(=O)c3n[nH]c4ccc(-c5cnn(C)c5)cc34)CC2)C1` [Compound 45, 5-(1-Methyl-1H-pyrazol-4-yl)-N-(2-methyl-2-azaspiro [3.5]nonan-7-yl)-1H-indazole-3-carboxamide]: the EC50 in test [1] was 1650 nM; in test [2] it was 4770 nM; in test [3], 355 nM; in the test on IL-6, 1270 nM. The results for the IC50 at DYRK1A kinase and at GSK3β kinase were 6 nM and 31 nM, respectively.

`O=C(Nc1ccc(F)cc1)c1n[nH]c2ccc(-c3cnn(C4CC4)c3)cc12` [Compound 46, 5-(1-Cyclopropyl-1H-pyrazol-4-yl)-N-(4-fluorophenyl)-1H-indazole-3-carboxamide]: the EC50 in test [1] was 1460 nM; in test [2] it was 4500 nM; in test [3], 543 nM; in the test with IL-6, > 10000 nM. The IC50 is 4450 nM at DYRK1A kinase and 704 nM at GSK3β kinase. Also, in the test with IL-6, the inhibition at 10 µM came to 48.3%.

The record behind these values is patent US10934297B2, “5-heteroaryl substituted indazole-3-carboxamides and preparation and use thereof” (Samumed, LLC, priority 2018, dated 2021).
